Experimental data as given in PMC6685951, “Migration of Bacteriocins Across Gastrointestinal Epithelial and Vascular Endothelial Cells, as Determined Using In Vitro Simulations” (Scientific Reports, 2019).
Where a SMILES comes first, the peptide text is derived from it. Bridges are numbered along the chain shown (N, C = ends).

Legend:
[1] = Plasma stability assay (loss of antimicrobial activity); format: in vitro ADME, human; conditions: 37 °C, 3 days, agar well diffusion vs L. monocytogenes EGDe, zone diameter (ImageJ)
Method: Human blood was collected in tubes with potassium and EDTA as anticoagulant, centrifuged at 500 × g (10 min, 25 °C) and the plasma collected. Different plasma concentrations (0%, 40% and 80%, v/v) were prepared by diluting with sterile ultrapure water. Nisin A, plantaricin 423 and bacST4SA, each suspended in sterile ultrapure water, were added to the plasma to final concentrations of 25 µM, 50 µM and 100 µM, sterile ultrapure water was used as control. Incubation was at 37 °C for 3 days and bacteriocin activity was tested using the agar well diffusion assay. Listeria monocytogenes EGDe was used as target organism. Digital images of the plates were taken after incubation and activity quantified by measuring the diameter of the zones using ImageJ software (version 1.5; https://imagej.nih.gov/ij/).

HUVEC [2] = assay: LDH release assay, HUVEC; format: cell-based, human; conditions: 24 h
Method: (§1) For viability and cytotoxicity studies, cells were seeded in 96-well flat-bottom culture plates (1 × 10^4 cells/well). To determine migration of nisin A, plantaricin 423 and bacST4SA across the gastrointestinal epithelial and vascular endothelial barriers, HUVEC and Caco-2 cells were grown on an 8 µm pore size tissue culture insert, as shown in Fig. 1. All cell culture experiments were done in triplicate and have been repeated more than three times.
HUVEC and Caco-2 cells were exposed to three different concentrations (25 µM, 50 µM and 100 µM) nisin A, plantaricin 423 and bacST4SA and the presence of extracellular LDH determined using the LDH release assay kit. Sterile ultrapure water was used as negative control (referred to as spontaneous LDH activity) and lysis buffer (10X) was used as positive control (referred to as maximum LDH activity). After incubating the cultures in the presence of the peptides for 24 h at 37 °C, culture supernatants were pipetted into a 96-well plate. Reaction mixture was added to the supernatants and plates were incubated at 25 °C for 30 min. Absorbance was measured at 490 nm and 680 nm, respectively. The percentage cytotoxicity was calculated as follows (1):1 %Cytotoxicity=(Compound−treatedLDHactivity)−(SpontaneousLDHactivity)/MaximumLDHactivity−SpontaneousLDHactivity×100

L. monocytogenes EGDe = assay: Antimicrobial activity of NHS-fluorescein labelled versus unlabelled peptides (zone sizes); format: cell-based, Listeria monocytogenes; conditions: 50 µM, 20 µL spotted on LEB agar seeded with L. monocytogenes EGDe, overnight 37 °C
Method: HPLC purified stock solutions of nisin A, plantaricin 423 and bacST4SA were prepared by dissolving the peptides in sterile ultrapure water. Immediately before conjugating NHS-fluorescein to the peptides, a stock solution of NHS-fluorescein was prepared by dissolving 1 mg of reagent in 100 µL DMF. The amount of NHS-fluorescein to be added to each peptide was calculated using the Eqs (2) and (3):2 mLpeptide×mgpeptide/mLpeptide×mmolpeptide/mgpeptide×15mmolNHS/mmolpeptide=mmolNHS 3 mmolNHS×473.4(MWofNHS)/mmolNHS×100µLDMF/1mg=µLNHS
The calculated concentration of NHS-fluorescein was added to the peptides and incubated on ice for 2 h. Non-reacted NHS-fluorescein was removed by Sep-Pak C18 column chromatography. Plantaricin 423 and bacST4SA were eluted with 60% acetonitrile containing 0.1% TFA and nisin A with 40% acetonitrile containing 0.1% TFA. Peptides were freeze dried and resuspended in sterile ultrapure water. Concentrations of the labelled peptides were determined with the BCA assay and diluted to 50 µM. Labelled peptides were filtered through a 0.45 µm HVLP membrane and spotted (20 µL) onto LEB agar seeded with 1% L. monocytogenes EGDe (OD600 0.1). Plates were incubated overnight at 37 °C and the fluorescent peptides visualised under a UVP 3UV Ultraviolet Lamp. Inhibition zones were measured using ImageJ software and compared to those of non-labelled peptides.

Caco-2 cells = assay: Neutral red viability assay, Caco-2; format: cell-based, human; conditions: 24 h, 37 °C
Method: as §1
(§2) Cells were treated with different concentrations of the peptides as described for the XTT assay. Sterile ultrapure water was used as control. After incubation at 37 °C for 24 h, neutral red solution was added to the cells (10% of the culture volume). After 4 h of incubation at 37 °C, the medium was removed by aspiration and the cells were rinsed with neutral red fixative. The fixative was removed, the dye solubilized by adding […] and the cells were gently stirred for 10 min on a gyratory shaker. Absorbance readings were recorded at 540 nm and 690 nm, respectively, using a microtiter plate reader. The percentage viability was calculated as the absorbance of treated cells divided by the absorbance of untreated cells (AT/AC × 100).

HUVEC [3] = assay: Neutral red viability assay, HUVEC; format: cell-based, human; conditions: 24 h, 37 °C
Method: as §1, §2

CC(C)C[C@@H]1NC(=O)[C@H](Cc2c[nH]cn2)NC(=O)[C@H](CO)NC(=O)[C@H](C(C)C)NC(=O)[C@H](CO)NC(=O)[C@@H](NC(=O)[C@H](CO)NC(=O)[C@H](Cc2ccccc2)NC(=O)[C@H](C)NC(=O)[C@H](CCC(N)=O)NC(=O)CNC(=O)[C@H](Cc2c[nH]c3ccccc23)NC(=O)[C@H](CC(N)=O)NC(=O)[C@@H](NC(=O)[C@H](CO)NC(=O)[C@@H]2CSSC[C@H](NC(=O)[C@@H](NC(=O)[C@@H](NC(=O)CNC(=O)[C@H](CC(N)=O)NC(=O)CNC(=O)[C@H](Cc3ccc(O)cc3)NC(=O)[C@H](Cc3ccc(O)cc3)NC(=O)[C@@H](N)CCCCN)C(C)C)[C@@H](C)O)C(=O)NCC(=O)N[C@@H](CCCCN)C(=O)N[C@@H](Cc3c[nH]cn3)C(=O)N[C@@H](CO)C(=O)N2)C(C)C)CSSC[C@@H](C(=O)O)NC(=O)[C@H](CCCCN)NC(=O)CNC(=O)[C@H](Cc2c[nH]cn2)NC(=O)CNC(=O)[C@H](Cc2ccccc2)NC(=O)[C@H](CC(N)=O)NC(=O)[C@H](C)NC1=O [plantaricin 423] (H-KYYGNGVTCGKHSCSVNWGQAFSCSVSHLANFGHGKC-OH; disulfide 9-14, 24-37; N-terminus and C-terminus assumed)
decrease in antimicrobial activity ([1]; 40% (v/v) human EDTA plasma in ultrapure water, 25 µM peptide): 40%
decrease in antimicrobial activity ([1]; 40% (v/v) human EDTA plasma in ultrapure water, 50 µM peptide): 30%
decrease in antimicrobial activity ([1]; 40% (v/v) human EDTA plasma in ultrapure water, 100 µM peptide): 17%
decrease in antimicrobial activity ([1]; 80% (v/v) human EDTA plasma in ultrapure water, 25 µM peptide): 60%
decrease in antimicrobial activity ([1]; 80% (v/v) human EDTA plasma in ultrapure water, 50 µM peptide): 39%
decrease in antimicrobial activity ([1]; 80% (v/v) human EDTA plasma in ultrapure water, 100 µM peptide): 29%
cytotoxicity level (LDH release) (HUVEC [2]; 100 µM, 37 °C, percentage of maximum LDH release (lysis buffer = 100%)): 21%
toxicity (LDH release) (HUVEC [2]; concentrations up to 100 µM): minimal toxicity
decrease in activity of labelled versus unlabelled peptide (antimicrobial zone sizes) (L. monocytogenes EGDe): 24%
cell viability (neutral red) (Caco-2 cells; Caco-2, 25 µM and 50 µM (up to 50 µM)): did not cause significant decreases
cell viability (neutral red) (Caco-2 cells; Caco-2, 100 µM): slight reduction
cell viability (neutral red) (HUVEC [3]; 25 µM and 50 µM (up to 50 µM)): did not cause significant decreases
cell viability (neutral red) (HUVEC [3]; 100 µM): slight reduction
